Literature values as cited in publication PMC4854401, “Biochemical Mechanisms for Geographical Adaptations to Novel Toxin Exposures in Butterflyfish” (PLoS ONE, 2016).

System: CYP activity
Design: method as in PMID 24272422
Settings: black swallowtails (Papilio polyxenes), dose-dependent; cited from earlier work

COc1c2occc2cc2ccc(=O)oc12 [xanthotoxin]
induced CYP activity, increase: seven fold
